According to patent US6127337A, “Bivalent thrombin inhibitors” (National Research Council of Canada, priority 1993, dated 2000):
Several values for one entry are separate records, joined by “and”; a condition that tells them apart may be missing. Equal values may be shown once. Read-outs that look alike come from different tables or passages of the source. Each block holds one substance with its values, some of them ahead of it.

Columns and labels:
[1] = target: T1, human thrombin (Homo sapiens, UniProt P00734); test: Inhibition of amidolytic activity of human thrombin (fluorogenic, Tos-Gly-Pro-Arg-AMC), Ki; type: biochemical
T1 construct: Human α-thrombin (3,000 NIH units/mg); purchased Sigma
Description: Materials. The chromogenic and fluorogenic substrates Tosyl-Gly-Pro-Arg-pNAand Tos-Gly-Pro-Arg-AMC were purchased from Boehringer Manheim and Sigma, respectively. […] Initial velocities were recorded at several inhibitor concentrations and kinetic parameters were determined by fitting the data to a general equation describing enzyme inhibition (Segel, 1975). The data were analyzed using the non-linear regression program RNLIN in the IMSL library (IMSL, 1987) on a microVAX™ 3500 computer. […] Fluorogenic assays were conducted using the same conditions and instrument as above operating in the fluorescence mode in the ratio (λex =383 nm, λem =455 nm) Fluorescence intensities were calibrated with 7-amino-4-methyl coumarin solution of known concentration
Determination of Thrombin Inhibitory Dissociation Constants KI
The steady-state velocity was then measured for a few minutes. The compounds of this invention were also pre-incubated with thrombin for 20 min at room temperature before adding the substrate. […] The kinetic data (the steady-state velocity at various concentrations of the substrate and the inhibitors) of the competitive inhibition was analyzed using the methods described by Segel (1975). A non-linear regression program, RNLIN in the IMSL library (IMSL, 1987), LMDER in MINPACK library (More et al., 1980) or Microsoft™ Excell™, was used to estimate the kinetic parameters (Km Vmax and Ki). The biological data are reported on tables I-V.

[2] = target: T1, human thrombin; test: Fibrin clotting assay; type: biochemical
Excerpt: Abbreviations. The following abbreviations have been used in the specification: Abu, γ-aminobutyric acid; Ac, acetyl; Aca, ε-aminocaproic acid; Aca*, 8-aminocapylic acid; Acha, 1-aminocyclohexane-carboxylic acid; Ada, 12-aminododecanoic acid; AMC, 7-amino-4-methylcoumarin; Aua, 11-aminoundecanoic acid; Ava, δ-aminovaleric acid; Bal, β-alanine; Boc, tert-butyloxycarbonyl; BrBzs, 4-bromobenzenesulfonyl; Bzs, benzene sulfonyl; Cha, β-cyclohexylalanine; Fmoc, 9-fluorenylmethoxycarbonyl;FRE, fibrinogen recognition exo site; HPLC, high performance liquid chromatography; MD805, (2R,4R)-4-methyl-1-[N^α -(3-methyl-1,2,3,4-tetrahydro-8-quinolinesulphonyl-glycyl)-L-arginyl]-2-piperidine carboxylic acid; NAPAP, N^α (2-naphtyl-sulphonyl)-D,L-p-amidinophenylalanyl-piperidide; Nas, naphtylsulfonyl; Nle, norleucine; 3-TAPAP, N^α -(4-toluene-sulphonyl)-D,L-p-amidinophenylalanyl-piperidide; OBzl, benzylester; Pip, pipecolic acid; PPACK, D-Phe-Pro-Arg chloromethylketone; tBbs, 4-tert-butylbenzenesulfonyl; Tic, 1,2,3,4-tetrahydroisoquinoline-3-carboxylic acid; TipBs, 2,4,6 triisopropylbenzenesulfonyl; TFA, trifluoroacetic acid; Tos, tosyl; Tris, 2-amino-2-(hydroxymethyl)-1,3-propanediol. All amino acid residues are L-configuration unless otherwise indicated. IC50 is defined as the inhibitor concentration required to double the clotting time relative to the control; means of three determinants ±SEM.
The fibrin clotting assay was performed in 50 mM Tris HCl buffer (pH 7.52 at 37° C.) containing 0.1 M NaCl and 0.1% poly(ethylene glycol) 8000 with 9.0×10^-10 M (0.1 NIH unit/mL) and 0.03% (w/v) of the final concentrations of human thrombin and bovine fibrinogen, respectively, as reported elsewhere (Szewczuk et al., 1992). The clotting time was plotted against the inhibitor concentrations and the IC50 was estimated as the inhibitor concentration required to double the clotting time relative to the control.

[3] = tested on: carotid injury-induced thrombosis; test: FeCl3 induced arterial injury model (carotid injury-induced thrombosis); type: in vivo; conditions: rat; for Dose to double occlusion time: control occlusion time 19 ± 1 min; for Dose to achieve patency at 60 min.: patency defined by no drop in vessel temperature
Description: […]: Rat, male, Sprague-Dawley. Weight: 375-450 g The FeCl3 induced arterial injury model assays were conducted according to Kurz, K. D., Main, […]., Thrombosis research 60; 269-280, 1990 and Schumacher, W. A. et al. J. pharmacology and experimental therapeutics 267; 1237-1242, 1993. Male, Sprague-Dawley (375-450 g) are anesthetized with Urethane (1500 mg/kg IP). Animals are laid on a heating pad which is maintained at 37° C. The carotid artery is approached through a midline cervical incision. Carefully blunt dissection is used to expose and isolate the vessel from the carotid sheath. Using forceps, the artery is lifted to provide clearance to insert two small polyethylene tubing (PE-205) underneath it. The temperature probe (Physitemp MT23/3 )TM is placed between the PE-205 and the artery. The vessel temperature is monitored for 60 minutes after application of FeCl3. Vessel temperature changes are recorded on a thermister (Cole-Palmer Model 08533-41). Injury is induced by application of a small disc (3 mm dia.) of WhatmanTM No.1 filter paper previously dipped in a 35% solution of FeCl3 on the carotid artery above the temperature probe. The site of the experiment is covered with in Aluminum foil in order to protect the FeCl3 from degradation by light. […] Before the start of the experiment, one blood sample is drawn (1 ml) in a tube of 0.105M buffered citrate solution (from the eye's sinus) and the animal is exsanguinated at the end. All the samples are kept on ice and centrifuged as soon as possible at 2000 Rpm for 10 min., 4° C. The plasma is analyzed in duplicate for activated partial thromboplastin time on a haemostasis analyzer (STAGO ST4TM). From a group of four animals, two arteries are stored at -80C for further analysis.

[4] = given intravenously or subcutaneously, depending on the species; cited from earlier work
[5] = Table V, concentration to double the clotting time, read-out: IC50 (dtt)
[6] = Table IV, no assay number given, read-out: Ki
[7] = Table I, active site directed inhibitors, human thrombin 6.0×10^-11 M, substrate 1-8×10^-5 M, read-out: Ki
[8] = Table I, inhibitor concentration required to double the clotting time, means of three ±SEM, read-out: IC50
[9] = Table II, various active site inhibitor segments, human thrombin 3.0×10^-11 M, read-out: Ki

Substance: 2,4,6 triisopropylbenzensulfonyl-Arg (D-Pipecolic acid)-(12-aminododecanoicacid)-4-aminobutyric acid)-Asp-Phe-Glu-Pro-Ile-Pro-Tyr-OH [BCH-2444]
Ki ([1]; Table V, read-out: Ki): 5.5 nM
IC50 [2, 5]: 55 nM

Substance: 4-bromobenzenesulfonyl-Arg (D-Pipecolic acid)-(12-aminododecanoic acid)-4-aminobutyric acid)- Asp-Phe-Glu-Pro-Ile-Pro-Tyr-OH [BCH-2733]
Ki ([1]; Table V, read-out: Ki): 0.8 nM
Ki ([1]; read-out: Ki value): < 1 nM and 0.8 nM
IC50 [2, 5]: 4.1 nM
Dose to double occlusion time [3]: > 2 mg/kg i.v. bolus
Dose to achieve patency at 60 min. [3]: > 2 mg/kg i.v. bolus

Substance: 4-tert-Butyl-benzene sulfonyl-Arg-(D-Pipecolic acid)-(12-aminododecanoic acid)-4-aminobutyric acid)-Asp-Phe-Glu-Glu-Ile-Pro-Glu-Glu-Tyr-Leu-Gln-OH [Peptide P552]
Dose to double occlusion time [3]: 0.5 mg/kg i.v. bolus
Dose to achieve patency at 60 min. [3]: ≥ 2 mg/kg i.v. bolus

Substance: Dansyl-Arg-(D-Pipecolic acid)-Abu-NH2 [Peptide P431]
Ki [1, 7]: 980 ± 130 nM
IC50 [2, 8]: 2580 ± 680 nM

Substance: Dansyl-Arg-(D-Pipecolic acid)-NH2 [Peptide P429]
Ki [1, 7]: 158 ± 57 nM
IC50 [2, 8]: 430 ± 130 nM

Substance: Dansyl-Arg-(D-Tic)-NH2 [Peptide P396]
Ki [1, 7]: 390 ± 20 nM
IC50 [2, 8]: 820 ± 150 nM

Substance: Dansyl-Arg-(L-Pip)-Abu-NH2 [Peptide P430]
Ki [1, 7]: 11600 ± 3300 nM
IC50 [2, 8]: 39100 ± 7200 nM

Substance: Dansyl-Arg-(L-Pip)-NH2 [Peptide P428]
Ki [1, 7]: 19100 ± 1300 nM
IC50 [2, 8]: 37900 ± 1900 nM

Substance: Hirudin
half-life [4]: 30 to 60 min

Substance: dansyl-Arg-(D-pipecolic acid)-(12-aminododecanoic acid)-4-aminobutyric acid)-Asp-Phe-Glu-Glu-Ile-Pro-Glu-Glu-Tyr-Leu-Gln-OH [Peptide P448]
Ki ([1]; FIG. 1 Dixon plot, human α-thrombin 0.033 NIH unit/mL, pH 7.8, 25° C., read-out: Ki): 0.017 ± 0.0042 nM
Dose to double occlusion time [3]: 1.0 mg/kg i.v. bolus
Dose to achieve patency at 60 min. [3]: > 2 mg/kg i.v. bolus

Substance: tert-butylbezenesulfonyl-Arg (D-Pipecolic acid)-(12-aminododecanoic acid)-4-aminobutyric acid)-Asp-Phe-Glu-Pro-Ile-Pro-Tyr-OH [BCH-2443]
Ki ([1]; Table V, read-out: Ki): 1 nM
IC50 [2, 5]: 12 nM
Dose to double occlusion time [3]: > 4 mg/kg i.v. bolus
Dose to achieve patency at 60 min. [3]: > 4 mg/kg i.v. bolus

Substance: tert-butylbezenesulfonyl-Arg (D-Pipecolic acid)-(12-aminododecanoic acid)-4-aminobutyric acid)-Asp-Phe-Glu-Pro-Ile-Pro-Tyr-OH [BCH-2736]
Ki ([1]; Table V, read-out: Ki): 270 nM
IC50 [2, 5]: 1100 nM
Dose to double occlusion time [3]: 4 mg/kg i.v. bolus
Dose to achieve patency at 60 min. [3]: > 4 mg/kg i.v. bolus

Further lines, with some results ahead:

Ki [1, 6]: 0.003 ± 0.0004 nM
Substance: 4-tert-butylbenzenesulfonyl-Arg-(D-pipecolic acid)-(12-aminododecanoic acid)-4-aminobutyric acid)-Asp-Tyr-Glu-Pro-Ile-Pro-Glu-Glu-Ala-(L-β-cyclohexylalanine)-(D- Glu)-OH [Peptide P553]
Dose to double occlusion time [3]: 0.25 mg/kg i.v. bolus
Dose to achieve patency at 60 min. [3]: 0.5-1 mg/kg i.v. bolus

Ki [1, 9]: 5.85 ± 0.098 nM
Substance: dansyl-Cha-(D-Pipecolic acid)-(12-aminododecanoic acid)-4-aminobutyric acid)-Asp-Phe-Glu-Glu-Ile-Pro-Glu-Glu-Tyr-Leu-Gln-OH [Peptide P477]

Ki [1, 9]: 5.2 ± 1.31 nM
Substance: dansyl-Nle-(D-Pipecolic acid)-(12-aminododecanoic acid)-4-aminobutyric acid)-Asp-Phe-Glu-Glu-Ile-Pro-Glu-Glu-Tyr-Leu-Gln-OH [Peptide P493]

Ki [1, 9]: 2.62 ± 0.2 nM
Substance: dansyl-Phe-(D-Pipecolic acid)-(12-aminododecanoic acid)-4-aminobutyric acid)-Asp-Phe-Glu-Glu-Ile-Pro-Glu-Glu-Tyr-Leu-Gln-OH [Peptide P476]

Ki [1, 9]: 14.8 ± 1.2 nM
Substance: fmoc-Arg-(D-Pipecolic acid)(12-aminododecanoic acid)-4-aminobutyric acid)-Asp-Phe-Glu-Glu-Ile-Pro-Glu-Glu-Tyr-Leu-Gln-OH [Peptide P484]

Ki [1, 9]: 0.032 ± 0.001 nM
Substance: α-naphthyl sulfonyl-Arg-(D-Pipecolic acid)-(12-aminododecanoic acid)-4-aminobutyric acid)-Asp-Phe-Glu-Glu-Ile-Pro-Glu-Glu-Tyr-Leu-Gln-OH [Peptide P531]
Dose to double occlusion time [3]: 0.5 mg/kg i.v. bolus
Dose to achieve patency at 60 min. [3]: > 2 mg/kg i.v. bolus

Ki [1, 6]: 0.0145 ± 0.0009 nM
Substance: α-naphthyl sulfonyl-arginyl D-pipecolic acid-(12-aminododecanoic acid)-4-aminobutyric acid)-Asp-Tyr-Glu-Pro-Ile-Pro-Glu-Glu-Ala-(L-β-cyclohexylalanine)-(D- Glu)-OH [Peptide P581]
Dose to double occlusion time [3]: 0.5 mg/kg i.v. bolus
Dose to achieve patency at 60 min. [3]: 1 mg/kg i.v. bolus

Ki [1, 9]: 0.024 ± 0.004 nM
Substance: β-naphthyl sulfonyl-Arg-(D-Pipecolic acid)-(12-aminododecanoic acid)-4-aminobutyric acid)-Asp-Phe-Glu-Glu-Ile-Pro-Glu-Glu-Tyr-Leu-Gln-OH [Peptide P532]
Dose to double occlusion time [3]: 0.5-1 mg/kg i.v. bolus
Dose to achieve patency at 60 min. [3]: 1-2 mg/kg i.v. bolus

Ki ([1]; Table IV, results from assay no. 1, read-out: Ki): 0.0033 ± 0.00016 nM
Ki ([1]; Table IV, results from assay no. 2, read-out: Ki): 0.0042 ± 0.0002 nM
Substance: β-naphthyl sulfonyl-arginyl D-pipecolic acid-(12-aminododecanoic acid)-4-aminobutyric acid)-Asp-Tyr-Glu-Pro-Ile-Pro-Glu-Glu-Ala-(L-β-cyclohexylalanine)-(D- Glu)-OH [Peptide P551]
Dose to double occlusion time [3]: 0.5-1 mg/kg i.v. bolus
Dose to achieve patency at 60 min. [3]: 1-2 mg/kg i.v. bolus
